The values that follow are results of earlier work, collected in patent US8927021B2, “Granulating process and thus prepared granulate” (Egis Gyogyszergyar Nyilvanosan Muekoedoe Reszventarsasag, priority 2009, dated 2015).

For the compound `O=C1[C@H](CC[C@H](O)c2ccc(F)cc2)[C@@H](c2ccc(O)cc2)N1c1ccc(F)cc1` [Ezetimibe, (3R,4S)-1-(4-Fluorophenyl)-3-[(3S)-3-(4-fluorophenyl)-3-hydroxypropyl]-4-(4-hydroxyphenyl)-2-azetidinone], the “solubility in digestive juice” value (digestive juice) is “insoluble”. In addition, where the note is “organic solvents”, the “solubility in organic solvents” value is “soluble”. Further, the solubility in water entry (water) is on record as “insoluble”.
